Values quoted from earlier work, collected in patent US7815920B2, “Method of preparing an antigen-containing formulation” (Allergy Therapeutics (UK) Ltd, priority 1998, dated 2010).

Conditions: not given

Compound	solubility in water (in words)
N[C@@H](CS)C(=O)O [cysteine]	quite soluble in water
NCCCC[C@H](N)C(=O)O [lysine]	quite soluble in water

Same assay, conditions: at 25° C.

Compound	Water Solubility
CSCC[C@H](N)C(=O)O [methionine]	3.4 g/100 ml H2O
N[C@@H](Cc1ccccc1)C(=O)O [phenylalanine]	3.0 g/100 ml H2O
N[C@@H](CS)C(=O)O [cysteine]	very
CC[C@H](C)[C@H](N)C(=O)O [isoleucine]	4.1 g/100 ml H2O
NCCCC[C@H](N)C(=O)O [lysine]	very

The next lines start with the values.

Water Solubility	Compound
4.2 g/100 ml H2O	N[C@@H](Cc1c[nH]cn1)C(=O)O [histidine]
2.4 g/100 ml H2O	CC(C)C[C@H](N)C(=O)O [leucine]
3.7 g/100 ml H2O	NC(=O)CC[C@H](N)C(=O)O [glutamine]
1.1 g/100 ml H2O	N[C@@H](Cc1c[nH]c2ccccc12)C(=O)O [tryptophan]
8.9 g/100 ml H2O	CC(C)[C@H](N)C(=O)O [valine]
3.5 g/100 ml H2O	NC(=O)C[C@H](N)C(=O)O [asparagine]
16.7 g/100 ml H2O	C[C@H](N)C(=O)O [alanine]
